The assay relates to CD2F1 mice, L1210 leukemia ip, survival T/C. Description: NCI In Vivo Anticancer Drug Screen. Data for tumor model L1210 Leukemia (intraperitoneal) in CD2F1 (CDF1) mice. The settings on record: endpoint: mean survival time, higher = longer survival. Put shortly: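 Read-out first: treated-group measurement over vehicle-control measurement, expressed as a ratio. Animals bore a transplanted tumor line and were dosed with compound or vehicle.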

[1] abbreviates: dose: 100.0 mg/kg/injection, schedule: Q04DX003 (ip), vehicle: saline with Tween-80.
[2] abbreviates: dose: 200.0 mg/kg/injection, schedule: Q04DX003 (ip), vehicle: saline with Tween-80.
The mark [3] stands for this setting: dose: 400.0 mg/kg/injection, schedule: Q04DX003 (ip), vehicle: saline with Tween-80.
[4] abbreviates: dose: 100.0 mg/kg/injection, schedule: Q01DX009 (ip), vehicle: saline.
[5] abbreviates: dose: 200.0 mg/kg/injection, schedule: Q01DX009 (ip), vehicle: saline.

SMILES strings stand for the structures. Toxic doses and inconclusive results are not listed.

Turning to `O=c1[nH]c(=O)n(C2CC(O)C(CO)O2)cc1C(F)(F)F` (configuration not stated), the T/C by setting is: (dose: 16.0 mg/kg/injection, schedule: Q01DX009 (ip), vehicle: water) 152 % of control; (dose: 16.0 mg/kg/injection, schedule: Q03HX016 (ip), vehicle: water) 123 % of control; (dose: 16.0 mg/kg/injection, schedule: Q03HX024 (ip), vehicle: water) 171 % of control; (dose: 64.0 mg/kg/injection, schedule: Q01DX009 (ip), vehicle: water) 152 % of control; (dose: 64.0 mg/kg/injection, schedule: Q04DX003 (ip), vehicle: water) 118 % of control; (dose: 128.0 mg/kg/injection, schedule: Q03HX016 (ip), vehicle: water) 157 % of control. Besides, the T/C (dose: 128.0 mg/kg/injection, schedule: Q03HX024 (ip), vehicle: water) was 109 % of control; the T/C (dose: 128.0 mg/kg/injection, schedule: Q04DX003 (ip), vehicle: water) is 112 % of control; the T/C (dose: 128.0 mg/kg/injection, schedule: Q08DX002 (ip), vehicle: water) is 100 % of control; the T/C (dose: 256.0 mg/kg/injection, schedule: Q01DX001 (ip), vehicle: water) is 108 % of control; the T/C (dose: 256.0 mg/kg/injection, schedule: Q01DX009 (ip), vehicle: water) is 112 % of control; the T/C (dose: 256.0 mg/kg/injection, schedule: Q03HX008 (ip), vehicle: water) is 152 % of control. Besides, the T/C runs as follows: (dose: 256.0 mg/kg/injection, schedule: Q03HX016 (ip), vehicle: water) 163 % of control; (dose: 256.0 mg/kg/injection, schedule: Q04DX003 (ip), vehicle: water) 118 % of control; (dose: 256.0 mg/kg/injection, schedule: Q08DX002 (ip), vehicle: water) 109 % of control; (dose: 512.0 mg/kg/injection, schedule: Q01DX001 (ip), vehicle: water) 114 % of control; (dose: 512.0 mg/kg/injection, schedule: Q03HX008 (ip), vehicle: water) 153 % of control; (dose: 512.0 mg/kg/injection, schedule: Q08DX002 (ip), vehicle: water) 112 % of control. The T/C was 114 % of control (dose: 1024.0 mg/kg/injection, schedule: Q08DX002 (ip), vehicle: water); 121 % of control (dose: 2048.0 mg/kg/injection, schedule: Q01DX001 (ip), vehicle: water); 124 % of control (dose: 2048.0 mg/kg/injection, schedule: Q08DX002 (ip), vehicle: water).
Regarding `CS(=O)(=O)C(=Cc1ccccc1Cl)S(C)(=O)=O`, the T/C is, setting by setting: under setting [1], 103 % of control; under setting [2], 95 % of control; under setting [3], 101 % of control.
On to `CC(C)NC(=O)C1CC2c3cccc4[nH]c(Br)c(c34)CC2N(C)C1` (configuration not stated), for which the T/C is, setting by setting: (dose: 5.0 mg/kg/injection, schedule: Q01DX009 (ip), vehicle: saline with Tween-80) 90 % of control; (dose: 10.0 mg/kg/injection, schedule: Q01DX009 (ip), vehicle: saline with Tween-80) 104 % of control; (dose: 20.0 mg/kg/injection, schedule: Q01DX009 (ip), vehicle: saline with Tween-80) 94 % of control.
`COc1ccc(S(=O)(=O)F)cc1NC(=O)c1ccc2ccccc2c1O`: the T/C is, setting by setting: under setting [4], 112 % of control; under setting [5], 108 % of control; (dose: 400.0 mg/kg/injection, schedule: Q01DX009 (ip), vehicle: saline) 113 % of control.
In the case of `O=C(Nc1ccc(N(CCCl)CCCl)cc1)c1ccccc1`, the T/C (dose: 100.0 mg/kg/injection, schedule: Q04DX003 (ip), vehicle: Klucel (hydroxypropylcellulose) (HPC)) is 96 % of control; the T/C (dose: 200.0 mg/kg/injection, schedule: Q04DX003 (ip), vehicle: Klucel (hydroxypropylcellulose) (HPC)) was 101 % of control; the T/C (dose: 400.0 mg/kg/injection, schedule: Q04DX003 (ip), vehicle: Klucel (hydroxypropylcellulose) (HPC)) was 109 % of control.
In the case of `O=C1CC(c2ccccc2)OC(c2ccccc2Cl)C1` (configuration not stated), the T/C under setting [1] was 94 % of control, the T/C under setting [2] is 97 % of control and the T/C under setting [3] is 94 % of control.
With `Cc1cc(O)c(N=Nc2cccc(C(=O)O)c2)cc1C`, the T/C was 107 % of control (dose: 50.0 mg/kg/injection, schedule: Q01DX009 (ip), vehicle: saline); 96 % of control under setting [4]; 103 % of control under setting [5].
As for `CSc1cc(=O)n(C2OC(COCc3ccccc3)C(OCc3ccccc3)C2OCc2ccccc2)c(=O)[nH]1` (configuration not stated), the T/C is 111 % of control (dose: 100.0 mg/kg/injection, schedule: Q01DX005 (ip), vehicle: saline) and 107 % of control (dose: 200.0 mg/kg/injection, schedule: Q01DX005 (ip), vehicle: saline).
For `O=C(O)CC1=C(c2ccc3ccccc3c2)CCC1=O`, the T/C was 98 % of control (dose: 100.0 mg/kg/injection, schedule: Q01DX001 (ip), vehicle: saline); 98 % of control (dose: 200.0 mg/kg/injection, schedule: Q01DX001 (ip), vehicle: saline); 98 % of control (dose: 400.0 mg/kg/injection, schedule: Q01DX001 (ip), vehicle: saline).
Take `COC1=CC23CCCN2CCc2cc4c(cc2C3C1O)OCO4` (configuration not stated): the T/C (dose: 12.5 mg/kg/injection, schedule: Q01DX009 (ip), vehicle: water) is 97 % of control; the T/C (dose: 25.0 mg/kg/injection, schedule: Q01DX009 (ip), vehicle: water) was 101 % of control; the T/C (dose: 50.0 mg/kg/injection, schedule: Q01DX009 (ip), vehicle: water) is 100 % of control; the T/C (dose: 100.0 mg/kg/injection, schedule: Q01DX009 (ip), vehicle: water) was 95 % of control; the T/C (dose: 200.0 mg/kg/injection, schedule: Q01DX009 (ip), vehicle: water) was 97 % of control.
Consider `CC(=Nc1ccccc1)c1ccc2ccccc2c1`, for which the T/C under setting [1] is 98 % of control, the T/C under setting [2] was 93 % of control and the T/C under setting [3] is 97 % of control.
As for `Clc1ccccc1/C=N/N=C/c1ccccc1Cl`, the T/C is 91 % of control (dose: 100.0 mg/kg/injection, schedule: Q01DX001 (ip), vehicle: saline with Tween-80); 90 % of control (dose: 200.0 mg/kg/injection, schedule: Q01DX001 (ip), vehicle: saline with Tween-80); 89 % of control (dose: 400.0 mg/kg/injection, schedule: Q01DX001 (ip), vehicle: saline with Tween-80).
Turning to `CC(C)C1OCC(C)(C)C(c2ccccc2)O1` (configuration not stated), the T/C was 93 % of control (dose: 50.0 mg/kg/injection, schedule: Q04DX002 (ip), vehicle: saline); 96 % of control (dose: 100.0 mg/kg/injection, schedule: Q04DX002 (ip), vehicle: saline); 110 % of control (dose: 200.0 mg/kg/injection, schedule: Q04DX002 (ip), vehicle: saline).
With `Cc1cc(=O)[nH]c(=O)[nH]1`, the T/C was 95 % of control (dose: 50.0 mg/kg/injection, schedule: Q01DX001 (ip), vehicle: Klucel (hydroxypropylcellulose) (HPC)); 98 % of control (dose: 50.0 mg/kg/injection, schedule: Q01DX009 (ip), vehicle: Klucel (hydroxypropylcellulose) (HPC)); 104 % of control (dose: 100.0 mg/kg/injection, schedule: Q01DX001 (ip), vehicle: Klucel (hydroxypropylcellulose) (HPC)); 98 % of control (dose: 100.0 mg/kg/injection, schedule: Q01DX009 (ip), vehicle: Klucel (hydroxypropylcellulose) (HPC)); 98 % of control (dose: 200.0 mg/kg/injection, schedule: Q01DX001 (ip), vehicle: Klucel (hydroxypropylcellulose) (HPC)); 102 % of control (dose: 200.0 mg/kg/injection, schedule: Q01DX009 (ip), vehicle: Klucel (hydroxypropylcellulose) (HPC)).
As to `CCOC(=O)CN1C(=O)C(Cl)=C(Cl)C1=O`, the T/C (dose: 12.5 mg/kg/injection, schedule: Q04DX003 (ip), vehicle: saline with Tween-80) was 98 % of control.
Consider `O=C1CN(CCN2CC(=O)N(C(=O)c3ccccc3)C2=S)C(=S)N1Cc1ccccc1`, for which the T/C runs as follows: (dose: 50.0 mg/kg/injection, schedule: Q01DX009 (ip), vehicle: saline with Tween-80) 96 % of control; (dose: 100.0 mg/kg/injection, schedule: Q01DX009 (ip), vehicle: saline with Tween-80) 96 % of control; (dose: 200.0 mg/kg/injection, schedule: Q01DX009 (ip), vehicle: saline with Tween-80) 96 % of control.
Turning to `C[CH2][Sn]1([CH2]C)[O]CC2OC(n3cc(C)c(=O)[nH]c3=O)CC2[O]1` (configuration not stated), the T/C is 94 % of control (dose: 0.78 mg/kg/injection, schedule: Q01DX005 (ip), vehicle: other); 104 % of control (dose: 1.56 mg/kg/injection, schedule: Q01DX005 (ip), vehicle: other); 110 % of control (dose: 3.13 mg/kg/injection, schedule: Q01DX005 (ip), vehicle: other); 107 % of control (dose: 6.25 mg/kg/injection, schedule: Q01DX005 (ip), vehicle: other).

Values taken from PubChem BioAssay AID256 (DTP/NCI, 2004).
